Values belong to the compound of their own block, whether it stands above or below them.
Columns and labels:
[1] = system: H1299 (human lung carcinoma cell); assay: Monolayer cell growth inhibition, MTS assay; type: cell-based; conditions: NCI-H1299, H1299, 72 hours compound treatment, lactate salts
Source text: (§1) Cell lines H1299 (human lung carcinoma cell) and HCT116 (colon tumor cell) are obtained from the American Type Culture Collection, Rockville, Md. The cell lines are free of Mycoplasma contamination (Rapid Detection System by Gen-Probe, Inc., San Diego, Calif.) and viral contamination (MAP testing by MA BioServices, Inc., Rockville, Md.). The cell lines are propagated and expanded in RPMI 1640 medium containing 10% heat-inactivated FBS (Life Technologies, Grand Island, N.Y.). Cell expansions for implantation are performed in cell factories (NUNC, purchased from Fisher Scientific, Springfield, N.J.). Cells are harvested at 50–90% confluency, washed once with HBSS (Hank's Balanced Salt Solution) containing 10% FBS, and suspended in 100% HBSS.
(§2) Cell proliferation is measured with a commercial MTS kit (Promega, Madision, Wis.) assay using an adaptation of published procedures, for example, that disclosed in Feasibility of drug screening with panels of human tumor cell lines using a microculture tetrazolium assay, Alley M C, et al., Cancer Res. 1988; 48:589–601. Cells are plated in 96-well tissue culture dishes, with top and bottom rows left empty. H1299 and HCT116 cells are suspended in complete media at a density of 5.3×10^3 and 3.6×10^3 cell/mL, respectively, and 190 μl are added per well. Each cell line is added to one half of the plate. Complete medium (200 μL) is added to the top and bottom rows. Twenty-four hours later, 10 μl of MTS solution is added to one of the plates to determine the activity at the time of compound addition (T0). The plate is incubated at 37° C. for 4 hours and the OD490 is measured on a Molecular Devices Thermomax at 490 nm using the Softmax program. The T0 plate serves as a reference for initial activity at the beginning of the experiment.
(§3) Five serial dilutions (1:4) of each compound are made in a 96-deep well plate with the highest concentrations on the edge of plate. Two cell lines are tested with two compounds per plate.0 Ten microliters of each of the five dilutions are added in triplicate and complete medium alone is added to columns six and seven. The plates are incubated at 37° C. for 72 hours. The MTS solution is added (as for the T0 plate) and read four hours later.
(§4) In order to analyze the data, the average background value (media alone) is subtracted from each experimental well; the triplicate values are averaged for each compound dilution. The following formulas are used to calculate percent growth.
Lactate salts of N-hydroxy-3-[4-[[[2-(1H-indol-3-yl)-ethyl]-amino]methyl]phenyl]-2E-2-propenamide (CMD1), N-hydroxy-3-[4-[[(2-hydroxyethyl)[2-(1H-indol-3-yl)ethyl]-amino]methyl]phenyl]-2E-2-propenamide (CMD2), N-hydroxy-3-[4-[[[2-(5-methoxy-1H-indol-3-yl)-ethyl]-amino]methyl]pheny]-2E-2-propenamide (CMD3), N-hydroxy-3-[4-[[[2-(5-fluoro-1H-indol-3-yl)-ethyl]-amino]methyl]phenyl]-2E-2-propenamide (CMD4), N-hydroxy-3-[4-[[[2-(benzofur-3-yl)-ethyl]-amino]methyl]phenyl]-2E-2-propenamide (CMD5) having a purity of higher than 95% are dissolved in pure dimethylsulfoxide (DMSO) to create a stock solution. The stock solution is diluted with 5% dextrose injection, USP, just prior to dosing.

[2] = system: Normal Dermal Human Fibroblasts (NDHF); assay: Annexin V / propidium iodide staining (apoptosis), fluorescence microscopy; type: cell-based; conditions: NDHF cells
Method: (§5) Annexin V binding was used as a marker for the early stages of apoptosis. A549,HCT116 and Normal Dermal Human Fibroblasts (NDHF) cells are treated separately with four compounds (CMD1, CMD2, CMD3 and CMD4) for 24 or 48 hours, stained with annexin V and compared to cells treated similarly with vehicle (DMSO). Cells are examined by fluorescence microscopy. […] Viability is assessed by the counterstain, propidium iodide. Cells detected by red fluorescence are not viable.

[3] = system: A549 non-small cell lung human tumor cell line; assay: A549 tumor xenograft in athymic mice, antitumor activity; type: in vivo; conditions: for Δ MEAN TUMOR VOLUME: ± SEM
Method: as §1, with “The A549 non-small cell” for “Cell lines H1299 (human”, “human” for “carcinoma cell) and HCT116 (colon”, “cell line is purchased” for “cell) are obtained”, “line is” for “lines are”, “HBSS” for “HBSS (Hank's Balanced Salt Solution)”
(§6) Outbred athymic (nu/nu) female mice (“Hsd:Athymic Nude-nu” from Harlan Sprague Dawley, Indianapolis, Ind.) are anesthetized with Metofane (Mallinckrodt Veterinary, Inc., Mundelein, Ill.), and 100 μL of the cell suspension containing 1×10^7 cells is injected subcutaneously into the right axillary (lateral) region of each animal. Tumors are allowed to grow for about 20 days until a volume of ˜100 mm^3 is achieved. At this point, mice bearing tumors with acceptable morphology and size are sorted into groups of eight for the study. The sorting process produces groups balanced with respect to mean and range of tumor size. Antitumor activity is expressed as % T/C, comparing differences in tumor volumes for treatment group (T) to vehicle control group (C).
(§7) CMD1 is administered intravenously, once daily 5×/week for three weeks, at doses of 10, 25, 50, or 100 mg/kg. The final DMSO concentration is 10%. Each test group has eight mice. Tumors are measured, and individual animal body weights recorded.
(§8) Example B3 repeated except CMD2 is used.

[4] = system: HDA partially purified from H1299 cells; assay: HDA enzyme assay, 3H-acetate release from acetylated histone H4 peptide; type: biochemical, human; conditions: HDA partially purified from H1299, 37° C. 1.5 hr
Method: HDA is partially purified from H1299, human non-small cell lung carcinoma cells (obtained from American Type Culture Collection, 12301 Parklawn Drive, Rockville, Md. 20852, USA). Cells are grown to 70–80% confluence in RPMI media in the presence of 10% FCS, harvested and lysed by sonication. The lysate is centrifuged at 23,420 g for 10–15 min, the supernatant is applied to a Hiload 26/10 High performance Q-sepharose column (Amersham Pharmacia Biotech), and equilibrated with a buffer containing 20 mM Tris pH8.0, 1 mM EDTA, 10 mM NH4Cl2, 1 mM μ-Mercaptoethanol, 5% glycerol, 2 μg/mL aprotinin, 1 μg/mL leupeptin, and 400 mM PMSF. Proteins are eluted in 4 mL aliquots with a linear gradient from 0–500 mM NaCl in the above buffer at a flow rate of 2.5 mL/min. Each preparation of partially purified HDA enzyme is titrated to determine the optimal amount needed to obtain a signal to noise ratio of at least 5 to 1. […] The compounds are serially diluted in DMSO to generate stocks at 20-fold of the assay concentrations. Final concentrations of compounds in the assay are 10 μM, 2 μM, 400 nM, 80 nM, and 16 nM with the final percentage of DMSO in each enzyme reaction equaling 0.1%. Each concentration of compound is assayed in duplicate. The substrate used in the reaction is a peptide of amino acid sequence, [sequence], corresponding to the twenty-four N-terminal amino acids of human histone H4, biotinylated at the N-terminus and penta-acetylated, at each lysine residue with ^3H-acetate. To initiate the reaction, the substrate is diluted in 10 μL of Buffer A (100 mM Tris pH 8.0, 2 mM EDTA), added to the enzyme mixture and collected at the bottom of the deep well plate by centrifugation for 5 minutes at 1500 rpm. Following centrifugation, the mixture is incubated at 37° C. for 1.5 hr. The reaction is stopped by the addition of 20 μL of the Stop Buffer (0.5N HCl, 0.08M Acetic Acid). At this point, the assay proceeds to the robotic extraction phase or is frozen for several days at −80° C.
The extraction of enzymatically cleaved ^3H-acetate groups from the reaction mixture is achieved with the solvent TBME (t-butyl methyl ether) using the Tomtec Quadra 96 workstation. A program is written to add 200 μL of TBME to a 96 “deep well” plate. The workstation is programmed to aspirate 50 μL of air followed by 200 μL of TBME and finally another 25 μL of air, which is dispensed into the each well of the plate. The contents of the deep well were mixed thoroughly by pipetting 160 μL up and down 10 times. Before addition of TBME to the reaction mixture, it is necessary to “pre-wet” the pipette tips with TBME to prevent the solvent from dripping during the transfer to the deep well plate. The organic and aqueous phases in the deep well are separated by centrifugation at 1500 rpm for 5 min. Opti-Phase Supermix liquid scintillation cocktail (200 μL) (Wallac) is added to each well of the 96-well Trilux plate (Wallac). […] The Trilux plate is covered with clear film and read on a 1450 MicroBeta Trilux liquid scintillation and luminescence counter (Wallac) with a color/chemical quench and dpm correction.
In order to determine the IC50 values, the data are analyzed on a spreadsheet. The analysis requires a correction for the background luminescence that is accomplished by subtracting the dpm values of wells without ^3H substrate from the experimental wells. […]

[5] = system: HCT116 (colon tumor cell); assay: Monolayer cell growth inhibition, MTS assay; type: cell-based; conditions: Homo sapiens, HCT-116, HCT116, 72 hours compound treatment, lactate salts
Source text: as §1, §2, §3, §4
The stock solution is diluted with 5% dextrose injection, USP, just prior to dosing.

[6] = Body weight change of A549 tumor-bearing athymic mice; type: in vivo; conditions: ± SEM
Method: as §6, §7, §8

[7] = system: HCT116 colon tumor cell line; assay: HCT116 tumor xenograft in athymic mice, antitumor activity; type: in vivo; conditions: 34th day; for Δ MEAN TUMOR VOLUME: ± SEM
Method: as §1, with “The A549 non-small cell” for “Cell lines H1299 (human”, “human” for “carcinoma cell) and HCT116 (colon”, “cell line is purchased” for “cell) are obtained”, “line is” for “lines are”, “HBSS” for “HBSS (Hank's Balanced Salt Solution)”
as §6, §7
(§9) Example B3 is repeated except the HCT116 colon tumor cell line is used in place of the A549 cell line. The HCT116 cell line is also obtained from American Type Culture Collection, Rockville, Md., and the cell line is free of Mycoplasma contamination and viral contamination.
(§10) Example B4 is repeated except the HCT116 colon tumor cell line is used in place of the A549 cell line. The HCT116 is also obtained from American Type Culture Collection, Rockville, Md., and the cell line is free of Mycoplasma contamination and viral contamination.

[8] = system: HCT116 colon tumor cell line; assay: as above; type: in vivo; conditions: Table B5, HCT116, 50 mg/kg i.v., 34th day, seven mice
HCT116 = assay: Annexin V / propidium iodide staining (apoptosis), fluorescence microscopy; type: cell-based, human; conditions: for cells exhibiting cell surface staining with annexin V: HCT116, 24 hour exposure; for cells staining with annexin V and/or propidium iodide: HCT116, 48 hour treatment
Method: as §5

A549 = assay: as above; type: cell-based, human; conditions: for cells exhibiting cell surface staining with annexin V: A549, 24 hour exposure; for cells staining with annexin V and/or propidium iodide: A549, 48 hour treatment
Method: as §5

[9] = Body weight change of HCT116 tumor-bearing athymic mice; type: in vivo; conditions: 34th day, ± SEM
Method: as §6, §7, §9, §10

[10] = A549, 10 mg/kg i.v. once daily 5×/week for three weeks, 41st day
[11] = A549, 25 mg/kg i.v. once daily 5×/week for three weeks, 41st day
[12] = A549, 50 mg/kg i.v. once daily 5×/week for three weeks, 41st day
[13] = A549, 100 mg/kg i.v. once daily 5×/week for three weeks, 41st day
[14] = Table B5, HCT116, 100 mg/kg i.v.
[15] = Table B4, A549, 25 mg/kg, Example B3 repeated
[16] = Table B4, A549, 50 mg/kg, Example B3 repeated

Compound: COc1ccc2[nH]cc(CCNCc3ccc(/C=C/C(=O)NO)cc3)c2c1 [CMD3, N-hydroxy-3-[4-[[[2-(5-methoxy-1H-indol-3-yl)-ethyl]-amino]methyl]pheny]-2E-2-propenamide]
- IC50 [1]: 0.58 µM
- annexin V staining ([2]; 24 hour exposure): do not show noticeable annexin V staining
- annexin V staining ([2]; 48 hour): limited annexin V staining
- IC50 [4]: 0.014 µM
- IC50 [5]: 0.03 µM
- cells exhibiting cell surface staining with annexin V (HCT116): the majority
- cells staining with annexin V and/or propidium iodide (HCT116): the majority
- cells exhibiting cell surface staining with annexin V (A549): A small percentage
- cells staining with annexin V and/or propidium iodide (A549): the majority

Compound: O=C(/C=C/c1ccc(CNCCc2coc3ccccc23)cc1)NO [CMD5, N-hydroxy-3-[4-[[[2-(benzofur-3-yl)-ethyl]-amino]methyl]phenyl]-2E-2-propenamide]
- IC50 [1]: 0.18 µM
- IC50 [4]: 0.016 µM
- IC50 [5]: 0.03 µM

Compound: Nc1ccccc1NC(=O)c1ccc(CNC(=O)OCc2cccnc2)cc1 [CMDC, reference compound]
- IC50 [1]: 6.8 µM

Second part, led by results:

- IC50 [1]: 0.4 µM
- IC50 [4]: 0.032 µM
- IC50 [5]: 0.03 µM
Compound: O=C(/C=C/c1ccc(CNCCc2c[nH]c3ccccc23)cc1)NO [CMD1, N-hydroxy-3-[4-[[[2-(1H-indol-3-yl)-ethyl]-amino]methyl]phenyl]-2E-2-propenamide]
- annexin V staining ([2]; 24 hour exposure): do not show noticeable annexin V staining
- % T/C [3, 10]: 32%
- Δ MEAN TUMOR VOLUME [3, 10]: 121 ± 27 mm^3
- % T/C [3, 11]: 20%
- Δ MEAN TUMOR VOLUME [3, 11]: 77 ± 32 mm^3
- % T/C [3, 12]: 15%
- Δ MEAN TUMOR VOLUME [3, 12]: 57 ± 10 mm^3
- % T/C [3, 13]: 7%
- Δ MEAN TUMOR VOLUME [3, 13]: 28 ± 25 mm^3
- Δ % BODY WEIGHT [6, 10]: +1.3 ± 0.3%
- Δ % BODY WEIGHT [6, 11]: −0.9 ± 0.3%
- Δ % BODY WEIGHT [6, 12]: −0.4 ± 0.3%
- Δ % BODY WEIGHT [6, 13]: +0.4 ± 0.3%
- % T/C [7, 14]: 18%
- Δ MEAN TUMOR VOLUME [7, 14]: 140 ± 38 mm^3
- % T/C [8]: 25%
- Δ MEAN TUMOR VOLUME ([8]; ± SEM): 186 ± 40 mm^3
- cells exhibiting cell surface staining with annexin V (HCT116): the majority
- cells staining with annexin V and/or propidium iodide (HCT116): the majority
- cells exhibiting cell surface staining with annexin V (A549): A small percentage
- cells staining with annexin V and/or propidium iodide (A549): the majority
- Δ % BODY WEIGHT ([9]; Table B5, HCT116, 50 mg/kg i.v., seven mice): −7.4 ± 0.8%
- Δ % BODY WEIGHT [9, 14]: −3.2 ± 0.4%

- IC50 [1]: 0.15 µM
- IC50 [4]: 0.063 µM
- IC50 [5]: 0.01 µM
Compound: O=C(/C=C/c1ccc(CN(CCO)CCc2c[nH]c3ccccc23)cc1)NO [CMD2, N-hydroxy-3-[4-[[(2-hydroxyethyl)[2-(1H-indol-3-yl)ethyl]-amino]methyl]phenyl]-2E-2-propenamide]
- annexin V staining ([2]; 24 hour exposure): do not show noticeable annexin V staining
- % T/C [3, 15]: 27%
- Δ MEAN TUMOR VOLUME [3, 15]: 37 ± 16 mm^3
- % T/C [3, 16]: 21%
- Δ MEAN TUMOR VOLUME [3, 16]: 29 ± 15 mm^3
- Δ % BODY WEIGHT [6, 15]: −4.2 ± 2.5%
- Δ % BODY WEIGHT [6, 16]: −2.9 ± 1.5%
- % T/C ([7]; Table B6, HCT116, 10 mg/kg): 56%
- Δ MEAN TUMOR VOLUME ([7]; Table B6, HCT116, 10 mg/kg): 422 ± 75 mm^3
- % T/C ([7]; Table B6, HCT116, 25 mg/kg): 40%
- Δ MEAN TUMOR VOLUME ([7]; Table B6, HCT116, 25 mg/kg): 305 ± 47 mm^3
- % T/C ([7]; Table B6, HCT116, 50 mg/kg): 13%
- Δ MEAN TUMOR VOLUME ([7]; Table B6, HCT116, 50 mg/kg): 97 ± 30 mm^3
- % T/C ([7]; Table B6, HCT116, 100 mg/kg): 17%
- Δ MEAN TUMOR VOLUME ([7]; Table B6, HCT116, 100 mg/kg): 132 ± 30 mm^3
- cells exhibiting cell surface staining with annexin V (HCT116): the majority
- cells staining with annexin V and/or propidium iodide (HCT116): the majority
- cells exhibiting cell surface staining with annexin V (A549): A small percentage
- cells staining with annexin V and/or propidium iodide (A549): the majority
- Δ % BODY WEIGHT ([9]; Table B6, HCT116, 10 mg/kg): −10.2 ± 0.5%
- Δ % BODY WEIGHT ([9]; Table B6, HCT116, 25 mg/kg): −7.0 ± 0.2%
- Δ % BODY WEIGHT ([9]; Table B6, HCT116, 50 mg/kg): −7.3 ± 0.3%
- Δ % BODY WEIGHT ([9]; Table B6, HCT116, 100 mg/kg): −9.4 ± 0.4%

- IC50 [1]: 0.28 µM
- IC50 [4]: 0.014 µM
- IC50 [5]: 0.03 µM
Compound: O=C(/C=C/c1ccc(CNCCc2c[nH]c3ccc(F)cc23)cc1)NO [CMD4, N-hydroxy-3-[4-[[[2-(5-fluoro-1H-indol-3-yl)-ethyl]-amino]methyl]phenyl]-2E-2-propenamide]
- annexin V staining ([2]; 24 hour exposure): do not show noticeable annexin V staining
- cells exhibiting cell surface staining with annexin V (HCT116): the majority
- cells staining with annexin V and/or propidium iodide (HCT116): the majority
- cells exhibiting cell surface staining with annexin V (A549): A small percentage
- cells staining with annexin V and/or propidium iodide (A549): the majority
